Data from patent US12568964B2 (priority 2019, dated 2026).
Read-outs that look alike come from different tables or passages of the source.

Tested on: Xylella fastidiosa
Format: in vivo
Conditions: 5 treatments; for Phenotypic improvement of infected olive plants after treatment: 5% w/v, sprayed on foliage, trunk and adjacent soil; for State of treated plants at 9 months after the treatment: 5% w/v in bidistilled water, 9 months after treatment

Molecule	Phenotypic improvement of infected olive plants after treatment (Example 3.1: three olive trees, 200 mg per plant suspended in bidistilled water, one every 5 days)	State of treated plants at 9 months after the treatment (Example 3.1: three olive trees, 200 mg per plant, one every 5 days)	Phenotypic improvement of infected olive plants after treatment (Example 3.4: four olive trees, 150 mg per plant suspended in bidistilled water, one every 5 days)	State of treated plants at 9 months after the treatment (Example 3.4: four olive trees, 150 mg per plant)
5-hydroxy-naphthalen-1,4-dione complexed with copper	Phenotypic improvements of the plant were observed with the birth of new shoots on the branches previously in a state of desiccation and disappearance of the crumpled and yellowish colored leaves	still free of crumpled and yellowish colored leaves and dried branches		
O=C1C=CC(=O)c2c(O)cccc21 [5-hydroxy-naphthalene-1,4-dione]			Phenotypic improvements of the plant were observed with the birth of new shoots on the branches previously in a state of desiccation and disappearance of the crumpled and yellowish colored leaves	still free of crumpled and yellowish colored leaves and dried branches
